From publication PMC3679022, “A Cancer Specific Cell-Penetrating Peptide, BR2, for the Efficient Delivery of an scFv into Cancer Cells” (PLoS ONE, 2013) come the findings set out here.

Data set [1] concerns HCT116 cells (K-ras mutated cells). As to the kind of experiment: Cell proliferation assay (MTT). The settings on record: same concentrations as fusion proteins (Fig. S4:), 24 h. It is filed as cell-based, human. Also on record: dose or concentration left out as unconfirmed. As to the method:
To assess the anti-proliferative activity of peptides and anti-Ras scFv fusion proteins, HCT116 cells (K-ras mutated cells) were seeded in 96-well plates at a density of 2×10^4 cells/well in 100 µL of DMEM supplemented with 10% FBS and cultured for 24 h at 37°C. […] Cell viability was measured with the 3-(4,5-dimethylthiazol-2-yl)-2,5-diphenyl tetrazolium bromide (MTT) assay using the CellTiter 96® Non-radioactive Cell Proliferation assay kit (Promega, Madison, WI) according to the manufacturer’s instructions. The absorbance of the solution was measured at 570 nm using a Microplate Reader (Bio-Rad). Cell viability was expressed as the percentage of viable cells treated with scFv or peptide-scFv fusion proteins compared to the PBS-treated control (100%). All experiments were done in triplicate.
Figure 4 Intracellular uptake of peptides and anti-Ras scFv fusion proteins and their anti-proliferative activity. […] (B) Protein uptake was analyzed by Western blotting of fractionated lysates from HCT116 cells treated with PBS, anti-Ras scFv, BR2- or Tat-scFv fusion protein (each, 2 µM) at 37°C for 2 h. […] Cell proliferation was determined using the MTT assay. […]
HCT116 cells were seeded in 96-well plates at a density of 2×10^4 cells/well in 100 μl of DMEM supplemented with 10% FBS and cultured for 24 h at 37°C. […] The absorbance of the solution was measured at 570 nm using a Microplate Reader (Bio-Rad). […]

Data set [2] concerns cancer cell lines (HeLa, HCT116 and B16/F10). As to the kind of experiment: In vitro cytotoxicity assay (LDH leakage), cancer cell lines. To be noted: 100 µM peptide, 24 h, 37°C; 0.2% Triton X-100 = 100%; n = 3. For orientation: LDH leaks from cells whose membrane has failed.
Procedure: The cytotoxicity of peptides to mammalian cells was investigated by assessing the release of lactate dehydrogenase (LDH) from cancer and normal cells. The amount of LDH released from damaged cells into the supernatant was measured using the Cytotoxicity Detection Kit (Roche Applied Science, Germany) according to the manufacturer’s instructions. In brief, cells were plated onto 96-well microplates (1×10^4 cells per well) in complete DMEM supplemented with 10% FBS and incubated overnight at 37°C to allow for attachment and spreading of cells. After 24 h of incubation, cells were treated with various concentrations of peptides (0–100 µM) and incubated for another 24 h at 37°C. The extracellular medium from each well was transferred to a new microplate and incubated for 10 min with 100 µl/well reaction mixture, followed by a stop solution. Absorbance was measured at 490 nm by using an ELISA plate reader. LDH release from cells lysed with 0.2% Triton X-100 in PBS was defined as 100% leakage and LDH release from untreated cells as 0% leakage.
(B,C) In vitro cytotoxicity of peptides. (B) Membrane disturbance was measured by lactate dehydrogenase (LDH) leakage from the indicated cell lines 24 h after peptide treatment. LDH leakage from cells seeded in a 96-well plate at 10,000 cells/well was measured after exposure to 1, 2, 5, 10, 20, 50 or 100 µM peptides for 24 h. […]

With RAGLQFPVGRLLRRLLR [BR2], the “anti-proliferative activity of peptide alone” value in data set [1] is “did not show any detectable inhibitions”. In addition, the LDH leakage in data set [2] is 40–60%.
